By % Inhibition is commonly meant the share of the control response that was lost under treatment. A higher % Inhibition goes with strong suppression. Broadly, the IC50 is the concentration at which inhibition is half-maximal.

Where two headings read alike, the source gives them in different places.

The values that follow come from PMC9919699, “A Comprehensive Approach to Derivatization: Elemental Composition, Biochemical, and In Silico Studies of Metformin Derivatives Containing Copper and Zinc Complexes” (Molecules, 2023).

For assay [1], the system named is α-glucosidase. Nature of the assay: α-glucosidase enzyme inhibition assay (starch substrate, anthrone reagent, 640 nm). Type of assay: biochemical. As to the method: The α-glucosidase-inhibitory activity of all derivatives of metformin was tested using the method previously described. Three test tubes were marked as test (T), blank (B), and control (C). Then, 200 µL of substrate (starch) and enzyme (α-glucosidase) was added to test tubes T and C. The contents were mixed well, and then the test tubes were incubated at 37 °C for 30 min. After incubation, trichloroacetic acid was added to all test tubes, which were then centrifuged for 10 min. Free glucose was available after the reaction with anthrone reagent (1.5 mL). The contents in the test tubes were boiled for 15 min, and the absorbance was read at a wavelength at 640 nm. The percentage inhibition was calculated using the following formula:Percentage inhibition = OD of control − OD of test tube/OD of control × 100.

Assay [2] relates to α-amylase. Nature of the assay: α-amylase enzyme inhibition assay (starch, dinitro-salicylic acid, 540 nm). Format: biochemical. To be noted: for IC50: read-out: IC50. As for the experimental part:
All derivatives of metformin were analyzed for serum amylase inhibitory activity using the Yukihoko Hara method. Three test tubes were labeled as blank (B), test (T), and control (C). Then, 2.5 mL of phosphate buffer (pH 6.8) was added to each test tube. Next, 1 mL of starch and 1 mL of 2 N sodium chloride solution were added to each test tube. The test tubes were incubated at 37 °C for 10 min. After incubation, 0.5 mL of derivatives was added to test tube T, followed by 0.2 mL of enzyme (α-amylase). All contents were mixed well, and then the tube was incubated at 37 °C for 10 min. In the control test tube, normal saline (2 N), starch solution (1 mL), and enzyme solution (0.2 mL) were added before incubating at 37 °C for 10 min. In the blank test tube, only 5.7 mL of distilled water was added. Dinitro-salicylic acid (0.2 mL) was added to all test tubes. The contents were mixed well, and the test tubes were kept in a boiling water bath for 15 min. The intensity of reddish orange was read at 540 nm. The percentage inhibitory action of serum amylase was calculated using the following formula:Percentage inhibition = OD of control − OD of test tube/OD of control × 100.

[3] abbreviates: 250 µg/mL, Table 6 (MZn series).
Where [4] appears, read: 500 µg/mL, Table 6 (MZn series).
Where [5] appears, read: 1000 µg/mL, Table 6 (MZn series).
[6] abbreviates: Table 6 (MZn series), read-out: IC50.
Where [7] appears, read: 250 µg/mL, Table 9 (MZn series).
Where [8] appears, read: 500 µg/mL, Table 9 (MZn series).
Setting [9] is: 1000 µg/mL, Table 9 (MZn series).
[10] abbreviates: 250 µg/mL, Table 4 (Met series).
Setting [11] is: 500 µg/mL, Table 4 (Met series).
The mark [12] stands for this setting: 1000 µg/mL, Table 4 (Met series).
[13] abbreviates: 250 µg/mL, Table 7 (Met series).
The mark [14] stands for this setting: 500 µg/mL, Table 7 (Met series).
Setting [15] is: 1000 µg/mL, Table 7 (Met series).
The mark [16] stands for this setting: Table 4 (Met series), read-out: IC50.

On to `CN(C)C(=N)NC(=N)N=CC=Cc1ccccc1.CN(C)C(=N)NC(=N)N=CC=Cc1ccccc1.O.O.O.O.O.O=S(=O)([O-])[O-].[Zn+2]` [MZn3], for which the “% Inhibition” value is recorded as 50.22 ± 0.15% in assay [1] (setting [3]); 58.18 ± 0.21% in assay [1] (setting [4]); 68.63 ± 0.20% in assay [1] (setting [5]); 13.59 ± 0.34% in assay [2] (setting [7]); 41.55 ± 0.34% in assay [2] (setting [8]); 78.57 ± 0.28% in assay [2] (setting [9]). Further, the IC50 is 540 µM in assay [1] (setting [6]) and 780 µM in assay [2] (Table 9 (MZn series)).
As for `C=NC(=N)NC(=N)N(C)C.C=NC(=N)NC(=N)N(C)C.O.O.O.O.O.O=S(=O)([O-])[O-].[Zn+2]` [MZn4], the “% Inhibition” value in assay [1] (setting [3]) is reported as 11.30 ± 0.15%; in assay [1] (setting [4]) it was 13.59 ± 0.20%; in assay [1] (setting [5]), 14.71 ± 0.26%; in assay [2] (setting [7]) it was 15.55 ± 0.34%; in assay [2] (setting [8]) it was 31.49 ± 0.28%; in assay [2] (setting [9]) it was 54.44 ± 0.28%. Moreover, the IC50 in assay [2] (Table 9 (MZn series)) was determined as 500 µM.
On to `CC(C)=NC(=N)NC(=N)N(C)C.CC(C)=NC(=N)NC(=N)N(C)C.O.O.O.O.O.O=S(=O)([O-])[O-].[Zn+2]` [MZn5], for which the “% Inhibition” value in assay [1] (setting [3]) amounted to 32.86 ± 0.15%; in assay [1] (setting [4]), 38.87 ± 0.10%; in assay [1] (setting [5]), 49.46 ± 0.20%; in assay [2] (setting [7]) it was 15.44 ± 0.28%; in assay [2] (setting [8]) it was 37.60 ± 0.28%; in assay [2] (setting [9]), 58.35 ± 0.17%. Further, in assay [2] (Table 9 (MZn series)), the IC50 was determined as 560 µM.
`CC(=NC(=N)NC(=N)N(C)C)c1ccccc1.CC(=NC(=N)NC(=N)N(C)C)c1ccccc1.O.O.O.O.O.O=S(=O)([O-])[O-].[Zn+2]` [MZn6]: the “% Inhibition” value in assay [1] (setting [3]) came to 36.67 ± 0.26%; in assay [1] (setting [4]), 41.26 ± 0.32%; in assay [1] (setting [5]), 44.51 ± 0.19%; in assay [2] (setting [7]), 18.76 ± 0.17%; in assay [2] (setting [8]), 33.29 ± 0.46%; in assay [2] (setting [9]), 51.47 ± 0.28%. The IC50 in assay [2] (Table 9 (MZn series)) stood at 540 µM.
Regarding `CN(C)C(=N)NC(=N)N=C(c1ccccc1)c1ccccc1.CN(C)C(=N)NC(=N)N=C(c1ccccc1)c1ccccc1.O.O.O.O.O.O=S(=O)([O-])[O-].[Zn+2]` [MZn7], the “% Inhibition” value in assay [1] (setting [3]) amounted to 33.67 ± 67%; in assay [1] (setting [4]), 37.61 ± 0.20%; in assay [1] (setting [5]) it was 42.54 ± 0.26%; in assay [2] (setting [7]), 24.32 ± 0.51%; in assay [2] (setting [8]), 44.52 ± 0.34%; in assay [2] (setting [9]), 73.43 ± 0.28%. In addition, the IC50 in assay [2] (Table 9 (MZn series)) worked out at 250 µM.
In the case of `COc1cc(C=NC(=N)NC(=N)N(C)C)ccc1O.COc1cc(C=NC(=N)NC(=N)N(C)C)ccc1O.O.O.O.O.O.O=S(=O)([O-])[O-].[Zn+2]` [MZn8], the figures for the IC50 in assay [1], in assay [1] (setting [6]) and in assay [2] (Table 9 (MZn series)) were 511.4 µg/mL, 650 µM and 900 µM, respectively. Moreover, the “% Inhibition” value in assay [1] (setting [3]) is on record as 49.24 ± 0.21%; in assay [1] (setting [4]), 70.37 ± 0.25%; in assay [1] (setting [5]) it was 81.54 ± 0.26%; in assay [2] (setting [7]), 37.46 ± 0.23%; in assay [2] (setting [8]), 68.50 ± 0.40%; in assay [2] (setting [9]) it was 83.52 ± 0.40%.
Turning to `CN(C)C(=N)NC(=N)N=C(c1ccccc1)C(O)c1ccccc1.CN(C)C(=N)NC(=N)N=C(c1ccccc1)C(O)c1ccccc1.O.O.O.O.O.O=S(=O)([O-])[O-].[Zn+2]` (centres unmarked) [MZn9], the “% Inhibition” value in assay [1] (setting [3]) turned out to be 28.64 ± 0.25%; in assay [1] (setting [4]) it was 37.51 ± 0.25%; in assay [1] (setting [5]) it was 45.37 ± 0.20%; in assay [2] (setting [7]) it was 15.64 ± 0.28%; in assay [2] (setting [8]), 38.64 ± 0.40%; in assay [2] (setting [9]), 59.70 ± 0.46%. For the same compound, the IC50 in assay [2] (Table 9 (MZn series)) amounted to 700 µM.
Take `C=NC(=N)NC(=N)N(C)C` [Met4, N,N-dimethyl-N′-methylidenetriimidodicarbonic diamide]: the “% Inhibition” value in assay [1] (setting [10]) amounted to 17.49 ± 0.29%; in assay [1] (setting [11]) it was 25.77 ± 0.35%; in assay [1] (setting [12]) it was 43.72 ± 0.26%; in assay [2] (setting [13]), 15.48 ± 0.15%; in assay [2] (setting [14]) it was 37.65 ± 0.19%; in assay [2] (setting [15]) it was 55.48 ± 0.23%. Also, in assay [2] (Table 7 (Met series)), the IC50 is 700 µM.
Take `CC(C)=NC(=N)NC(=N)N(C)C` [Met5, N,N-dimethyl-N′-(propan-2-ylidene)triimidodicarbonic diamide]: the “% Inhibition” value is on record as 22.85 ± 0.15% in assay [1] (setting [10]); 39.43 ± 0.19% in assay [1] (setting [11]); 53.44 ± 0.15% in assay [1] (setting [12]); 15.61 ± 0.20% in assay [2] (setting [13]); 39.48 ± 0.32% in assay [2] (setting [14]); 63.47 ± 0.23% in assay [2] (setting [15]). Moreover, the results for the IC50 in assay [1] (setting [16]) and in assay [2] (Table 7 (Met series)) were 2000 µM and 740 µM, respectively.
Turning to `C/C(=N\C(=N)NC(=N)N(C)C)c1ccccc1` [Met6, N,N-dimethyl-N′-[(1E)-1-phenylethylidene]triimidodicarbonic diamide], the “% Inhibition” value in assay [1] (setting [10]) is listed as 16.41 ± 0.19%; in assay [1] (setting [11]) it was 28.86 ± 0.15%; in assay [1] (setting [12]), 51.47 ± 0.26%; in assay [2] (setting [13]), 18.48 ± 0.26%; in assay [2] (setting [14]), 33.35 ± 0.20%; in assay [2] (setting [15]), 41.34 ± 0.17%. Moreover, the IC50 in assay [1] (setting [16]) stood at 1300 µM; in assay [2] (Table 7 (Met series)) it was 1700 µM.
Regarding `CN(C)C(=N)NC(=N)N=C(c1ccccc1)c1ccccc1` [Met7, N′-(diphenylmethylidene)-N,N-dimethyltriimidodicarbonic diamide], the “% Inhibition” value in assay [1] (setting [10]) was found to be 27.42 ± 0.32%; in assay [1] (setting [11]), 41.84 ± 0.15%; in assay [1] (setting [12]) it was 55.77 ± 0.01%; in assay [2] (setting [13]), 24.25 ± 0.20%; in assay [2] (setting [14]), 34.45 ± 0.26%; in assay [2] (setting [15]) it was 48.33 ± 0.51%. Moreover, the 50% inhibitory concentration (IC50) in assay [1] (setting [16]) was found to be 900 µM; in assay [2] (Table 7 (Met series)) it was 1400 µM.
For the compound `CN(C)C(=N)NC(=N)N=C(c1ccccc1)C(O)c1ccccc1` (centres unmarked) [Met9, N′-[(1Z)-2-hydroxy-1,2-diphenylethylidene]-N,N-dimethyltriimidodicarbonic diamide], the “% Inhibition” value worked out at 10.79 ± 0.10% in assay [1] (setting [10]); 29.86 ± 0.10% in assay [1] (setting [11]); 39.09 ± 0.05% in assay [1] (setting [12]); 5.41 ± 0.20% in assay [2] (setting [13]); 8.61 ± 0.25% in assay [2] (setting [14]); 19.71 ± 0.46% in assay [2] (setting [15]). Also, the IC50 in assay [2] (Table 7 (Met series)) was determined as 790 µM.
Regarding `CN(C)C(=N)N=C(N)N` [Met, N,N-dimethyltriimidodicarbonic diamide, reference compound], the “% Inhibition” value in assay [1] (setting [10]) is 41.73 ± 0.10%; in assay [1] (setting [11]), 52.83 ± 0.11%; in assay [1] (setting [12]), 81.30 ± 0.10%; in assay [2] (setting [13]), 55.27 ± 0.20%; in assay [2] (setting [14]), 63.18 ± 0.20%; in assay [2] (setting [15]), 85.25 ± 0.32%. Besides, the IC50 stood at 4800 µM in assay [1] (setting [16]) and 9400 µM in assay [2] (Table 7 (Met series)).
